Tested on: cardiomyocytes
Test: Drug tests on cultured cardiomyocytes recorded with 3D nanotransistor biosensor (AP and mechanical signals)
Assay type: cell-based, human
Conditions: for amplitude of AP / amplitude of broad peaks (mechanical signal): after adding drug, 20 μM, electrical recording
Description: Human embryonic stem cell-derived cardiomyocytes (hESC-CMs), which are considered promising in vitro models of cardiac health and disease, were cultured on the device substrate.
As part of experimental trials, drug tests were performed to further reveal the potential of implementing the sensors in pharmacological and pathological studies on cells. Blebbistatin, an inhibitor of myosin essential for motile machinery, was used to suppress cell contraction, as shown in FIG. 3A.
Conversely, lidocaine, a Na+ channel blocker, was added to suppress Na+ influx which contributes mostly to extracellular AP, as shown in FIG. 3D.
A Ca^2+ dysfunctional model was also built by treating the cardiomyocytes with isradipine, a Ca^2+ channel blocker used for treating a wide variety of cardiovascular disorders, as shown in FIG. 3G and its inset.
Cardiomyocytes were differentiated from human embryonic stem cells (hESCs, WAe009-A, H9) and human induced pluripotent stem cells (hiPSCs, generated from human primary T cells using episomal reprogramming) following methods described previously. Briefly, both cell types were maintained in the 60 mm tissue culture dishes coated with 10 ug/mL Matrigel in DMEM-F12 (Gibco™) using Essential 8 medium (Gibco™) and sub-passaged every 3-4 days. During differentiation, cells were seeded in a 12-well plate for 2-3 days until confluency, then replaced with RPMI 1640 medium (Gibco™) plus 1% B27-insulin (Gibco™) and 8 μM CHIR99021 (Tocris Bioscience™) (day 0). After 24 h (day 1), the medium was changed to RPMI 1640 plus 1% B27-insulin. On day 3, day 5, and day 7, the medium was changed to RPMI 1640 plus 1% B27-insulin and 5 μM IWR-1-endo (Cayman Chemical), RPMI 1640 plus 1% B27-insulin, and RPMI 1640 plus 1% B27, respectively. The medium was then replaced with RPMI 1640 plus 1% B27 every other day. […] During days 10-15, cardiomyocytes were ready for experiments. The cells were rinsed with 1×DPBS to remove calcium and inhibit contraction, then incubated with 0.5 mL of 0.5 mM Trypsin-EDTA (Gibco™) for 5 mins in a 37° C. incubator to dissociate into single cells. The EDTA was then aspirated, and the cells were dissociated by gently pipetting with 2 mL RPMI 1640 plus 1% B27 using a 1 ml pipet tip. The cells were transferred to a 15 mL conical tube and centrifuged at 250 g for 3 minutes, then resuspended with 2 mL RPMI 1640 plus 1% B27 supplemented with 10% Fetal Bovine Serum (Gibco™) and 10 μM Y-27632 ROCK inhibitor (Tocris Bioscience™). The device substrate integrated with nanotransistors was sterilized by incubating in 70% ethanol solution (1 h) at room temperature and then UV-treated (1 h). The device was coated with 20 μg/mL Matrigel in RPMI 1640 for 1 h at 37° C. Cells were seeded on the device substrate at the density of 3-5×10^5/cm^2. The cardiomyocytes were maintained using RPMI 1640 plus 1% B27 by changing the medium daily. Electrical recordings were typically performed starting from day 5 after the cell seeding.
All in vitro electrical recordings were carried out at the ambient environment with an Au reference electrode.

[1] = treatment, concentration not given

For `Cc1cccc(CCN2CCC(C(=O)c3ccc(NS(C)(=O)=O)cc3)CC2)n1` [E-4031], the “contractile frequency and amplitude” value [1] was “fluctuations in contractile frequency and amplitude”.
In the case of `Cc1ccc2c(c1)C(=O)C1(O)CCN(c3ccccc3)C1=N2` (centres unmarked) [blebbistatin], the “amplitude of AP” value is reported as “maintained the similar level”, the “amplitude of broad peaks (mechanical signal)” value is reported as “substantial decrease” and the “broad peaks (mechanical signal) after washing out” value (washing out blebbistatin) is reported as “restored the broad peaks”.
For `COC(=O)C1=C(C)NC(C)=C(C(=O)OC(C)C)C1c1cccc2nonc12` (centres unmarked) [isradipine], the AP (isradipine treatment, 20 nM) was “concurrent decrease”, the mechanical signal (isradipine treatment, 20 nM) was “apparent suppression” and the “time to apparent suppression of mechanical signal” value (isradipine treatment, 20 nM) was “about 100 seconds”. For the same compound, the “mechanical and AP signals after washing out” value (washing out isradipine) was “restored both signals”.
In the case of `CCN(CC)CC(=O)Nc1c(C)cccc1C` [lidocaine], the “amplitude of AP” value is reported as “prominent suppression”, the “amplitude of broad peaks (mechanical signal)” value is reported as “no obvious effect” and the AP amplitude (after lidocaine 20 μM, before ~10 nS) is reported as ~ 2 nS. For the same compound, the AP duration (after lidocaine 20 μM, before ~19 ms) was ~ 40 ms.
For `NC[C@H](O)c1ccc(O)c(O)c1` [norepinephrine], the conduction pathway [1] was “alteration of the conduction pathway” and the contractile frequency [1] was “increased contractile frequency”.
